The nature of series [1]: Poultry digestibility trial (intestinal digestibility of His and Lys sources). Type of series: in vivo. The method, then:
This trial tested four different sources of AA for their intestinal digestibility. Crystalline His and Lys were coated with partially hydrogenated vegetable oil to test their digestibility as compared to His(HCl) and Lys(HCl), respectively. His(HCl) contains 74.3 wt. % His, whereas, the coated product contains 40 wt. % His. Lys(HCl) contains 78.8 wt. % Lys, whereas, the coated product contains 45 wt. % Lys. For this trial the test articles were added at low levels. The control diet was used as a blank to measure endogenous losses and to calculate the digestibility of His and Lys. The control diet was spiked with His or Lys by using either His(HCl) or Lys(HCl), respectively, (0.50% inclusion rate). This provided His and Lys at 0.372% and 0.394%, respectively. The coated His and Lys products were added to provide the same level of His or Lys as provided by the His(HCl) or Lys(HCl), respectively. The digestibility of His and Lys in the casein was determined and this effect was assessed in calculating the digestibility of the coated His and coated Lys. All test diets contained the same amount of casein (the only other source of His and Lys) as the control diet.

Details of series [2]: species or system cows. Particulars: cow, in vivo. Here is the method: Free Amino Acid degradation in vivo was determined using a technique that used cobalt (CoII) as a ruminal flow marker to follow the flow of Maillard-protected histidine (which had been reacted with lactose) out of the rumen. Maillard-protected histidine loss was evaluated relative to CoII outflow in fistulated cows. Free histidine or histidine modified by the Maillard Reaction Protocol were introduced into fistulated cows together with Cobalt II. After introducing the histidine or modified histidine into the cows, samples of rumen fluid periodically were withdrawn and the amount of histidine was determined using an O-phthaldialdehyde assay as described by Roth (1971), Anal. Chem. 43:880. The amount of CoII was determined using inductively coupled plasma emission spectroscopy. The amount of histidine related to CoII was plotted versus time to calculate a degradation coefficient (Kd) for free and protected histidine.

SMILES strings stand for the structures.

For `Cl.N[C@@H](Cc1c[nH]cn1)C(=O)O` [Histidine HCl], the “App. His Dig.” value in series [1] (apparent histidine digestibility, His at 0.372% of diet) is listed as 99.3. The “True His. Dig.” value in series [1] (true histidine digestibility, His at 0.372% of diet) is on record as 100.2.
Regarding `N[C@@H](Cc1c[nH]cn1)C(=O)O` [free histidine, histidine], the “degradation coefficient (Kd)” value in series [2] is 0.75 to 0.95 h⁻¹.
Take `Cl.NCCCC[C@H](N)C(=O)O` [Lysine HCL]: the “App. Lys. Dig.” value in series [1] (apparent lysine digestibility, Lys at 0.394% of diet) was determined as 97.3. Further, the “True Lys Dig.” value in series [1] (true lysine digestibility, Lys at 0.394% of diet) came to 99.6.

Source of the values: patent US20060039955A1, “Animal feed compositions with enhanced histidine content” (Cargill, Incorporated, priority 2004, published 2006).
